In article PMC10041525, “New Dual Inhibitors of Bacterial Topoisomerases with Broad-Spectrum Antibacterial Activity and In Vivo Efficacy against Vancomycin-Intermediate Staphylococcus aureus” (Journal of Medicinal Chemistry, 2023):
Where two headings read alike, the source gives them in different places.

System: 100 A. baumannii strains (50 MDR, 50 non-MDR)
Assay: MIC broth microdilution at IHMA Europe, panel of 100 strains
Assay type: cell-based
Conditions: for MIC / MIC50 / MIC90: Acinetobacter baumannii

`C[C@H]1COc2c(N3CCN(C)CC3)c(F)cc3c(=O)c(C(=O)O)cn1c23.C[C@H]1COc2c(N3CCN(C)CC3)c(F)cc3c(=O)c(C(=O)O)cn1c23.O` [Levofloxacin, levofloxacin] was tested, and the MIC (A. baumannii IHMA 2051503, Serbia 2019, MDR) was 16 µg/mL, the MIC (A. baumannii IHMA 2058329, Slovenia 2019, Non-MDR) was no more than 0.25 µg/mL and the MIC (A. baumannii IHMA 2065587, France 2019, Non-MDR) was no more than 0.25 µg/mL. The MIC (A. baumannii IHMA 2099294, United Kingdom 2019, Non-MDR) was no more than 0.25 µg/mL, the MIC (A. baumannii IHMA 2129256, Qatar 2019, Non-MDR) was no more than 0.25 µg/mL and the MIC (A. baumannii IHMA 2154584, Israel 2020, MDR) was 8 µg/mL. For the same compound, the MIC (A. baumannii IHMA 2155340, Kenya 2020, MDR) was 16 µg/mL, the MIC (A. baumannii IHMA 2156634, Turkey 2020, MDR) was 16 µg/mL and the MIC (A. baumannii IHMA 2156709, Turkey 2020, MDR) was 16 µg/mL. For the same compound, the MIC (A. baumannii IHMA 2157614, Australia 2020, Non-MDR) was no more than 0.25 µg/mL, the MIC (A. baumannii IHMA 2177232, Lithuania 2020, MDR) was 16 µg/mL and the MIC (A. baumannii IHMA 2177489, Lithuania 2020, MDR) was 16 µg/mL. For the same compound, the MIC (A. baumannii IHMA 2178574, Ukraine 2020, Non-MDR) was no more than 0.25 µg/mL, the MIC (A. baumannii IHMA 2180134, Malaysia 2020, Non-MDR) was 0.5 µg/mL and the MIC (A. baumannii IHMA 2180142, Malaysia 2020, MDR) was 4 µg/mL. The MIC (A. baumannii IHMA 2181370, Morocco 2020, MDR) was 8 µg/mL, the MIC (A. baumannii IHMA 2183729, Argentina 2020, MDR) was 8 µg/mL and the MIC (A. baumannii IHMA 2183849, Argentina 2020, Non-MDR) was no more than 0.25 µg/mL. The MIC (A. baumannii IHMA 2184382, Japan 2020, Non-MDR) was no more than 0.25 µg/mL, the MIC (A. baumannii IHMA 2193375, Venezuela 2020, MDR) was 8 µg/mL and the MIC (A. baumannii IHMA 2193485, Venezuela 2020, Non-MDR) was no more than 0.25 µg/mL. The MIC (A. baumannii IHMA 2193607, Venezuela 2020, MDR) was 8 µg/mL, the MIC (A. baumannii IHMA 2195460, Italy 2020, MDR) was 16 µg/mL and the MIC (A. baumannii IHMA 2196914, South Africa 2020, MDR) was 16 µg/mL. For the same compound, the MIC (A. baumannii IHMA 2196959, South Africa 2020, MDR) was 4 µg/mL, the MIC (A. baumannii IHMA 2203763, Spain 2020, MDR) was greater than 16 µg/mL and the MIC (A. baumannii IHMA 2205144, Korea, South 2020, MDR) was 16 µg/mL. The MIC (A. baumannii IHMA 2206459, Taiwan 2020, MDR) was 16 µg/mL, the MIC (A. baumannii IHMA 2206507, Taiwan 2020, Non-MDR) was no more than 0.25 µg/mL and the MIC (A. baumannii IHMA 2212575, Hungary 2020, Non-MDR) was no more than 0.25 µg/mL. For the same compound, the MIC (A. baumannii IHMA 2215307, Hong Kong 2020, Non-MDR) was no more than 0.25 µg/mL, the MIC (A. baumannii IHMA 2216586, Taiwan 2020, MDR) was 8 µg/mL and the MIC (A. baumannii IHMA 2223200, Colombia 2020, Non-MDR) was no more than 0.25 µg/mL. It also gave an MIC (A. baumannii IHMA 2224017, Panama 2020, MDR) of 8 µg/mL, an MIC (A. baumannii IHMA 2224303, Panama 2020, Non-MDR) of no more than 0.25 µg/mL and an MIC (A. baumannii IHMA 2231797, Greece 2020, MDR) of 8 µg/mL. For the same compound, the MIC (A. baumannii IHMA 2233099, Guatemala 2020, MDR) was 8 µg/mL, the MIC (A. baumannii IHMA 2233430, Kazakhstan 2020, MDR) was greater than 16 µg/mL and the MIC (A. baumannii IHMA 2233548, Kazakhstan 2020, Non-MDR) was no more than 0.25 µg/mL. The MIC (A. baumannii IHMA 2238964, Thailand 2020, MDR) was 4 µg/mL, the MIC (A. baumannii IHMA 2239052, Thailand 2020, Non-MDR) was no more than 0.25 µg/mL and the MIC (A. baumannii IHMA 2261047, Belgium 2020, MDR) was 8 µg/mL. The MIC (A. baumannii IHMA 2261633, Canada 2020, Non-MDR) was no more than 0.25 µg/mL, the MIC (A. baumannii IHMA 2274234, South Africa 2020, MDR) was 8 µg/mL and the MIC (A. baumannii IHMA 2274364, South Africa 2020, MDR) was 16 µg/mL. It also gave an MIC (A. baumannii IHMA 2275237, Chile 2020, Non-MDR) of no more than 0.25 µg/mL, an MIC (A. baumannii IHMA 2275751, Jordan 2020, MDR) of 8 µg/mL and an MIC (A. baumannii IHMA 2316205, United States 2020, MDR) of 16 µg/mL. It also gave an MIC50 (MDR n = 50) of 8 µg/mL, an MIC90 (MDR n = 50) of 16 µg/mL and an MIC50 (all isolates n = 100) of 0.5 µg/mL. For the same compound, the MIC90 (all isolates n = 100) was 16 µg/mL, the MIC50 (non-MDR n = 50) was no more than 0.25 µg/mL and the MIC90 (non-MDR n = 50) was no more than 0.25 µg/mL. It also gave an MIC (read-out: MAX (maximum MIC), non-MDR n = 50) of 0.5 µg/mL, an MIC (read-out: MAX (maximum MIC; all strains inhibited), MDR n = 50) greater than 16 µg/mL and an MIC (read-out: MAX (maximum MIC; all strains inhibited), all isolates n = 100) greater than 16 µg/mL. It also gave an MIC (read-out: MIN (minimum MIC), MDR n = 50) of 4 µg/mL, an MIC (read-out: MIN (minimum MIC), all isolates n = 100) of no more than 0.25 µg/mL and an MIC (read-out: MIN (minimum MIC), non-MDR n = 50) of no more than 0.25 µg/mL. The “Percentage I” value (MDR n = 50) was 12%, the “Percentage R” value (MDR n = 50) was 88% and the “Percentage S” value (MDR n = 50) was 0%. The “Percentage I” value (all n = 100, CLSI breakpoints) was 6%, the “Percentage R” value (all n = 100, CLSI breakpoints) was 44% and the “Percentage S” value (all n = 100, CLSI breakpoints) was 50%. The “Percentage I” value (non-MDR n = 50) was 0%, the “Percentage R” value (non-MDR n = 50) was 0% and the “Percentage S” value (non-MDR n = 50) was 100%.
